What was measured:
[1] = test system: isolated ventricular myocytes from DOCA-salt and sham mice; assay: Calcium transient measurements (Fura-2AM) in isolated cardiomyocytes; assay type: cell-based, mouse; conditions: 10 μM ranolazine
Procedure: Cell shortening and calcium transient measurements: The mechanical properties of the cardiomyocytes were assessed using an IonOptix Myocam System (Ionoptix Inc., Milton, Mass.). Unloaded cardiomyocytes were placed on a glass slide and allowed to adhere for 10 min. Cardiomyocytes were then imaged with an inverted microscope and perfused with a Tyrode's buffer containing 1.2 mmol/L calcium at room temperature. Cardiomyocytes were paced at 0.5 Hz for 10 ms duration, and sarcomere shortening and relengthening were assessed using the following indices: peak fractional shortening (FS), time to 90% peak shortening, and τ, the relaxation time constant (a0+[…]^t/τ, t=time). […] For calcium transient measurements, cardiomyocytes were loaded with 1 μmol/L Fura 2-AM for 10 min at room temperature, and fluorescence measurements were recorded with a dual-excitation fluorescence photomultiplier system (IonOptix). […] The emitted fluorescence was detected at 510 nm. To take into account any inference from background fluorescence, the background fluorescence for each cardiomyocyte was determined by moving the cardiomyocyte out of the view and recording the fluorescence from the bath solution alone. The mechanical properties of the cardiomyocytes were assessed using an IonOptix Myocam System (Ionoptix Inc., Milton, Mass.). […] The emitted fluorescence was detected at 510 nm. […]

DOCA-salt mice = assay: Myofilament calcium sensitivity of fibers from mice chronically treated with ranolazine; assay type: in vivo, mouse; conditions: fibers from hearts of DOCA-salt mice chronically treated with ranolazine vs. DOCA-salt mice
Procedure: A special diet contained 5 mg ranolazine, 0.3 mg P450 inhibitor, and 0.25 mg red food color was pressed into a 1-g nutritionally complete grain-based tablet (Harlan, Madison, Wis.). The control diet contained 0.3 mg P450 inhibitor and 0.25 mg yellow food color pressed into the same type of 1-g tablets. DOCA-salt and sham mice consumed daily ˜1 g of the special diet from postoperative day 11 to 18. […] We also determined Ktr, which is a measure of the rate of re-entry of cross-bridges into force generating states.

DOCA-salt and sham mice = assay: Echocardiography after chronic administration of ranolazine; assay type: in vivo, mouse; conditions: for ES (%): chronic ranolazine in diet (5 mg per 1-g tablet, ~1 g daily) for 7 days
Procedure: A special diet contained 5 mg ranolazine, 0.3 mg P450 inhibitor, and 0.25 mg red food color was pressed into a 1-g nutritionally complete grain-based tablet (Harlan, Madison, Wis.). The control diet contained 0.3 mg P450 inhibitor and 0.25 mg yellow food color pressed into the same type of 1-g tablets. DOCA-salt and sham mice consumed daily ˜1 g of the special diet from postoperative day 11 to 18.
Mice were anesthetized, maintained at 37° C., and studied by echocardiography (Vevo 770, VisualSonics Inc, Toronto, Canada). M-mode images in the parasternal long axis and the left ventricle (LV) short-axis views at the mid-papillary level were taken. Measurements were averaged from three consecutive beats during expiration. LV inflow velocities (E and A waves) were interrogated by conventional pulsed-wave Doppler from the apical four-chamber view. The mitral annulus longitudinal velocities (Sm, E′, and A′) were determined by pulsed-wave tissue Doppler from the apical four-chamber view. Interpretation was done by a two investigators blinded to the treatment groups. First, baseline images were acquired. Subsequently to determine the acute effect, the mice were injected with 30 mg/kg ranolazine by intraperitoneal route, followed by a second echocardiogram 30 min later.
In an additional set of experiments, we treated DOCA-salt mice with ranolazine for 7 days and measured diastolic function using echocardiography to evaluate the effect of chronic ranolazine therapy on myocardial function (Table 5).

[2] = DOCA-salt mice, chronic ranolazine in diet, 7 days
[3] = sham mice, chronic ranolazine in diet, 7 days

SMILES: COc1ccccc1OCC(O)CN1CCN(CC(=O)Nc2c(C)cccc2C)CC1 (stereo not drawn) [ranolazine]
- Ca2+ transients [1]: did not affect either group
- maximal tension in response to Ca2+ (DOCA-salt mice): significantly reduces maximal tension
- ES (%) (DOCA-salt and sham mice; DOCA-salt mice): 53.3 ± 1.3%
- E/A (DOCA-salt and sham mice; [2]): 1.84 ± 0.35
- E′, early septal mitral annulus velocity (TDI) (DOCA-salt and sham mice; [2]): 1.86 ± 0.13 cm/s
- Sm, systolic septal mitral annulus velocity (TDI) (DOCA-salt and sham mice; [2]): 1.82 ± 0.05 cm/s
- ES (%) (DOCA-salt and sham mice; sham mice): 49.7 ± 4.9%
- E/A (DOCA-salt and sham mice; [3]): 2.42 ± 0.42
- E/E′ (DOCA-salt and sham mice; [3]): 28.0 ± 3.45
- E′, early septal mitral annulus velocity (TDI) (DOCA-salt and sham mice; [3]): 2.11 ± 0.21 cm/s
- E′/A′ (DOCA-salt and sham mice; [3]): 1.03 ± 0.07
- Sm, systolic septal mitral annulus velocity (TDI) (DOCA-salt and sham mice; [3]): 2.04 ± 0.12 cm/s

From patent publication US20120214818A1, “METHODS OF TREATING DIASTOLIC DYSFUNCTION AND RELATED CONDITIONS” (THE BOARD OF TRUSTEES OF THE UNIVERSITY OF ILLINOIS, priority 2009, published 2012)
